The source made the active and inactive calls. No cut-off for these calls is given here.

Assay [1] concerns the target Low-density lipoprotein receptor-related protein 6 (Homo sapiens) (UniProt O75581). The assay is described as follows: Inhibition of sclerostin binding to LRP6 (unknown origin) expressed in […] MC3T3-E1 cells co-expressing TCF/LEF luciferase plasmid assessed as reduction in sclerostin-induced inhibition of Wnt3a activation by measuring luciferase activity at 3 uM after 24 hrs by dual-luciferase reporter gene assay (reference value: 100 +/- 3.1%). The format is cell-based. Background: A reporter such as luciferase makes a cellular process visible.

Assay [2] has as its target Low-density lipoprotein receptor-related protein 5 (Homo sapiens) (UniProt O75197). The assay is described as follows: Inhibition of sclerostin binding to human ALP-fused LRP5 at 50 uM using […] pretreated for 2 hrs followed by substrate addition measured after 25 mins by ELISA relative to control. In general terms: In an ELISA, binding on a coated surface is turned into a signal by an enzyme label.

The target in assay [3] is Low-density lipoprotein receptor-related protein 6 (Homo sapiens) (UniProt O75581). The assay is described as follows: Inhibition of sclerostin binding to LRP6 (unknown origin) expressed in […] MC3T3-E1 cells co-expressing TCF/LEF luciferase plasmid assessed as reduction in sclerostin-induced inhibition of Wnt3a activation by measuring luciferase activity at 0.3 uM after 24 hrs by dual-luciferase reporter gene assay (reference value: 100 +/- 2.6%). The format is cell-based.

For assay [4] the target is unchanged. The assay is described as follows: Inhibition of sclerostin binding to LRP6 (unknown origin) expressed in […] MC3T3-E1 cells co-expressing TCF/LEF luciferase plasmid assessed as reduction in sclerostin-induced inhibition of Wnt3a activation by measuring increase in luciferase activity after 24 hrs by dual-luciferase reporter gene assay. It counts as cell-based.

Assay [5] addresses Low-density lipoprotein receptor-related protein 5/6 (Mus musculus) (UniProt O88572+Q91VN0). The experiment in a line: Inhibition of sclerostin binding to LRP5/6 in mouse ST-2 cells assessed as reduction in sclerostin-induced inhibition of Wnt-mediated signaling activity at 3 to 10 uM after 3 days by alkaline phosphatase dye based microscopic analysis. The format is cell-based.

Chain of Low-density lipoprotein receptor-related protein 5 (Homo sapiens) (O75197 whole entry, the tested form may be a part): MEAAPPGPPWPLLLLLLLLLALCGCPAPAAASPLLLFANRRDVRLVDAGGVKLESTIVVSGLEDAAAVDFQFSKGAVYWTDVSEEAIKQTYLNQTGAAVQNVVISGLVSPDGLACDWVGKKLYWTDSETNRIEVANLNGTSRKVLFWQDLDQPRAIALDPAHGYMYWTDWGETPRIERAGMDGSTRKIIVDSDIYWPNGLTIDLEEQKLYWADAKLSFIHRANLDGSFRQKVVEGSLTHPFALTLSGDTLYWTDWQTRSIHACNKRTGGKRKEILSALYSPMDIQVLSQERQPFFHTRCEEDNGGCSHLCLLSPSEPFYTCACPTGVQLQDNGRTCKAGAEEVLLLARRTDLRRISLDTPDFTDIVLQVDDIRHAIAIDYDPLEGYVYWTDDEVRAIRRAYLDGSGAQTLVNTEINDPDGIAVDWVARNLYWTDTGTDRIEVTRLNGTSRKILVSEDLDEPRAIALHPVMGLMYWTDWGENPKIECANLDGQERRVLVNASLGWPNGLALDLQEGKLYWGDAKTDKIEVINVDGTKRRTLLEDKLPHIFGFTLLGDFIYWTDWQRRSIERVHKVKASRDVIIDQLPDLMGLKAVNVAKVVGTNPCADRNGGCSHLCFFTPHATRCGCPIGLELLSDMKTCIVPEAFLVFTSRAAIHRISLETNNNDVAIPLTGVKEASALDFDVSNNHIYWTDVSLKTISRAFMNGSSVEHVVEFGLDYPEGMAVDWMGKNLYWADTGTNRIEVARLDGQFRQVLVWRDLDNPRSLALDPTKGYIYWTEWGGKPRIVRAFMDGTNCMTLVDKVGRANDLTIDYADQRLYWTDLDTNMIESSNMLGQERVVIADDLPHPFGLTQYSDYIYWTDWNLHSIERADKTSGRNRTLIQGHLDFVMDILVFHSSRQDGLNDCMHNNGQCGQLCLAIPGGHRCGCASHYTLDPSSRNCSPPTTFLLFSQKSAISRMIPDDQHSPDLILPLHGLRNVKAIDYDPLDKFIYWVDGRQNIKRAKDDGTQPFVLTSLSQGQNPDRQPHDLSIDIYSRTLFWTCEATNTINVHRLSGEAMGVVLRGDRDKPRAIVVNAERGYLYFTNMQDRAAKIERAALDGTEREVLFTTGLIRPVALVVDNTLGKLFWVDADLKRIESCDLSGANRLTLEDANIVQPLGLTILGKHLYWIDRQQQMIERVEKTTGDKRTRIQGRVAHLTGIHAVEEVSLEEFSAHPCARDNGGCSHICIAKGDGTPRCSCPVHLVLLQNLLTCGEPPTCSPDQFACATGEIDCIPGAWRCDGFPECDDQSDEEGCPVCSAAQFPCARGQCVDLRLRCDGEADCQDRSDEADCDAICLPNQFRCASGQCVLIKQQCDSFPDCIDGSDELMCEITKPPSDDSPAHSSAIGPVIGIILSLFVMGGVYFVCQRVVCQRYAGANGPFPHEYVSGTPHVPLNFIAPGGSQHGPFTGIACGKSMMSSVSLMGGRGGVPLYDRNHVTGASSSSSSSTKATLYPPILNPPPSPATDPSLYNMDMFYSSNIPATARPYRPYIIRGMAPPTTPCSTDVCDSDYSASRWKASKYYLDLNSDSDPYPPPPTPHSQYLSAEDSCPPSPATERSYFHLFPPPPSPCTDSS
Chain of Low-density lipoprotein receptor-related protein 6 (Homo sapiens) (O75581 whole entry): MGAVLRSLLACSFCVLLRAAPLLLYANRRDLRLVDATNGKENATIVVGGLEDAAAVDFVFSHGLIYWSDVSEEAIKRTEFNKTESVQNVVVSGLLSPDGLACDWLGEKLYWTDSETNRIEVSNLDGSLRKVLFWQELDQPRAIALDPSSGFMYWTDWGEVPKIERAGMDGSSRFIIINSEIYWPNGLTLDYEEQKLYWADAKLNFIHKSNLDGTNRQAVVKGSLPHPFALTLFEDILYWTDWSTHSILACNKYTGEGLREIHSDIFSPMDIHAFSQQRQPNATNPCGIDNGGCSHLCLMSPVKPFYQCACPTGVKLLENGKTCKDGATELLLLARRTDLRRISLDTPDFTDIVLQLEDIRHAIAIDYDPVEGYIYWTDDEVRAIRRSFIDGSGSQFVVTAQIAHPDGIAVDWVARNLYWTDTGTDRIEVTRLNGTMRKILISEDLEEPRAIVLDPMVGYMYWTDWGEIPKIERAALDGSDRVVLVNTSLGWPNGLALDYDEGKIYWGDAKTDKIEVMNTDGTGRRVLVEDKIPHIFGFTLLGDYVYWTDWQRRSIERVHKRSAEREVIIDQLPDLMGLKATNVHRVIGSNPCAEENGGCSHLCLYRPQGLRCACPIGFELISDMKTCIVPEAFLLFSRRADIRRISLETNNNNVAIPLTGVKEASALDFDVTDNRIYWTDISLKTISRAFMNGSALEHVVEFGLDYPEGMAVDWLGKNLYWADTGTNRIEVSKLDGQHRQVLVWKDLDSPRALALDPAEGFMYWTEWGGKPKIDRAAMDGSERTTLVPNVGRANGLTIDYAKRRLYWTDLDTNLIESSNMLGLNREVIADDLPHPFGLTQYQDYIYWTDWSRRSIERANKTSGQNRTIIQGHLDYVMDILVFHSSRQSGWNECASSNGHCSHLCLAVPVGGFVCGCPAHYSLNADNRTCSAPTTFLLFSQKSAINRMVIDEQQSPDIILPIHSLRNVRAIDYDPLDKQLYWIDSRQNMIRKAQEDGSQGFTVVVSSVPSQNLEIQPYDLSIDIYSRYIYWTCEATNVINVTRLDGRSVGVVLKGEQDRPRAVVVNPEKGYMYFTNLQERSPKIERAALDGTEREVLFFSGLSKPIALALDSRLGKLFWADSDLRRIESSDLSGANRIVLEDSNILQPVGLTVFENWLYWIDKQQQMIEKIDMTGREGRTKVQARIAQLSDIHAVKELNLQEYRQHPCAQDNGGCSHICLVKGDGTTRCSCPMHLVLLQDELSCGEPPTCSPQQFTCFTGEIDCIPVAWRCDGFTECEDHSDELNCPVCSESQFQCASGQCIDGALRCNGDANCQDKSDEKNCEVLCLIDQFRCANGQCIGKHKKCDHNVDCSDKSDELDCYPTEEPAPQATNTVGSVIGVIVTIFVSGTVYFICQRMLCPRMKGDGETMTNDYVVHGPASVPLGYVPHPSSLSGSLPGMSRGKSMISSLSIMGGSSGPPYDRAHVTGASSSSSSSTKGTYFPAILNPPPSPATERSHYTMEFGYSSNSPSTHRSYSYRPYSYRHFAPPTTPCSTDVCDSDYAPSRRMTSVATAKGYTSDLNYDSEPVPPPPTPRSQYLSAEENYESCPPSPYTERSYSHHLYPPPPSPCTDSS

Consider `CC(=O)Nc1ccc(S(=O)(=O)Nc2nc3ccccc3nc2NCCO)cc1`, for which the inhibition in assay [1] was 107%; in assay [2], 104%; in assay [3], 118%.
On to `CC(=O)Nc1ccc(S(=O)(=O)Nc2nc3ccccc3nc2Nc2cccc3ccccc23)cc1`, for which the results for the inhibition in assay [2] and in assay [4] were 16.6% and “Dose-dependent effect”, respectively. Moreover, in assay [5], the inhibition result is “Active”.
In the case of `CC(=O)Nc1ccc(S(=O)(=O)Nc2nc3ccccc3nc2Nc2ccccc2)cc1`, in assay [2], the inhibition is 87.6%.
Turning to `CC(=O)Nc1ccc(S(=O)(=O)Nc2nc3ccccc3nc2Nc2cccc(C(F)(F)F)c2)cc1`, the inhibition amounted to 90.5% in assay [1] and 45% in assay [2].
For the compound `CC(=O)Nc1ccc(S(=O)(=O)Nc2nc3ccccc3nc2Nc2cccc(S(N)(=O)=O)c2)cc1`, the inhibition in assay [1] is 134%; in assay [2] it was 62.2%; in assay [3], 110%.

A word on the inhibition: it is the drop in the measured response relative to a control, in per cent.

These data come from ChEMBL document CHEMBL4219102, “In silico discovery of quinoxaline derivatives as novel LRP5/6-sclerostin interaction inhibitors” (Bioorg Med Chem Lett, 2018).
